In publication PMC6891286, “Towards the Development of an In vivo Chemical Probe for Cyclin G Associated Kinase (GAK)” (Molecules, 2019):
Like-named read-outs stand apart in the source and are kept apart here. One block for each molecule: values may come before it.

Experiments:
CYP1A2 = system: CYP1A2; set-up: method as in PMID 18936109; settings: cited from earlier work
CYP2D6 = system: CYP2D6; set-up: method as in PMID 18936109; settings: cited from earlier work
CYP2C9 = system: CYP2C9; set-up: method as in PMID 18936109; settings: cited from earlier work
CYP3A4 = system: CYP3A4; set-up: method as in PMID 18936109; settings: cited from earlier work
CYP2B6 = system: CYP2B6; set-up: method as in PMID 18936109; settings: cited from earlier work
CYP2C19 = system: CYP2C19; set-up: method as in PMID 18936109; settings: cited from earlier work
CYP2A6 = system: CYP2A6; set-up: method as in PMID 18936109; settings: cited from earlier work
CYP2C8 = system: CYP2C8; set-up: method as in PMID 18936109; settings: cited from earlier work
[1] = mouse liver microsome metabolic stability; settings: for CLint scaled / half-life: mouse; for half-life: mean average, n = 2
Experimental: SGC-GAK-1 (1) was incubated with MLMs in the presence or absence of added NADPH, and the compound was quantified at various time points over an hour.
The metabolic stability of the 4-anilinoquinolines (8–13) were evaluated in MLMs (Table 1). Half-lives for metabolic clearance were normalized to propranolol in each experimental run to control for variations in the MLM preparations.

[2] = pharmacokinetic profiling in mice, oral dosing; assay type: in vivo; settings: C57BL/6 mice, 10 mg/kg po; for Cmax / AUC(0-inf) / Tmax: 10 mg/kg
Experimental: Pharmacokinetic profiling was performed by SAI Life Sciences (Hyderabad, India). […] Prior approval of the Institutional Animal Ethics Committee (IAEC) was obtained before initiation of the study. Healthy male C57BL/6 mice (8–12 weeks old) weighing between 20 and 35 g were procured from (Envigo Research Private Ltd., City, Hyderabad, India). Three mice were housed in each cage. […] Temperature and humidity were recorded by an automatically controlled data logger system. All animals were provided a laboratory rodent diet (Envigo Research Private Ltd., Hyderabad, India). Reverse osmosis water treated with ultraviolet light was provided ad libitum. Eighteen male mice were weighed and divided in to two groups (Group 1 and Group 2), with nine mice in each group. […] The dosing volume administered was 10 mL/kg for the oral route. […] Plasma samples were separated by centrifugation at 4000 rpm for 10 min and stored below −70 °C until bioanalysis. […] The plasma concentration-time data were then used for the pharmacokinetic analysis. A non-compartmental analysis module in Phoenix WinNonlin (Version 6.3, Certara USA Inc., Raleigh, NC, USA) was used to assess the pharmacokinetic parameters. Maximum concentration (Cmax) and time to reach the maximum concentration (Tmax) were the observed values. The areas under the concentration time curve (AUClast and AUCinf) were calculated by linear trapezoidal rule.

[3] = system: prostate cancer cells that contain constitutively-active splice variants of the androgen receptor; set-up: method as in PMID 30973735; settings: cited from earlier work
GAK [4] = biological target: T1, GAK (Homo sapiens, UniProt O14976); set-up: method as in PMID 30768268, PMID 30973735; settings: cited from earlier work
T1 sequence (O14976 1-1311): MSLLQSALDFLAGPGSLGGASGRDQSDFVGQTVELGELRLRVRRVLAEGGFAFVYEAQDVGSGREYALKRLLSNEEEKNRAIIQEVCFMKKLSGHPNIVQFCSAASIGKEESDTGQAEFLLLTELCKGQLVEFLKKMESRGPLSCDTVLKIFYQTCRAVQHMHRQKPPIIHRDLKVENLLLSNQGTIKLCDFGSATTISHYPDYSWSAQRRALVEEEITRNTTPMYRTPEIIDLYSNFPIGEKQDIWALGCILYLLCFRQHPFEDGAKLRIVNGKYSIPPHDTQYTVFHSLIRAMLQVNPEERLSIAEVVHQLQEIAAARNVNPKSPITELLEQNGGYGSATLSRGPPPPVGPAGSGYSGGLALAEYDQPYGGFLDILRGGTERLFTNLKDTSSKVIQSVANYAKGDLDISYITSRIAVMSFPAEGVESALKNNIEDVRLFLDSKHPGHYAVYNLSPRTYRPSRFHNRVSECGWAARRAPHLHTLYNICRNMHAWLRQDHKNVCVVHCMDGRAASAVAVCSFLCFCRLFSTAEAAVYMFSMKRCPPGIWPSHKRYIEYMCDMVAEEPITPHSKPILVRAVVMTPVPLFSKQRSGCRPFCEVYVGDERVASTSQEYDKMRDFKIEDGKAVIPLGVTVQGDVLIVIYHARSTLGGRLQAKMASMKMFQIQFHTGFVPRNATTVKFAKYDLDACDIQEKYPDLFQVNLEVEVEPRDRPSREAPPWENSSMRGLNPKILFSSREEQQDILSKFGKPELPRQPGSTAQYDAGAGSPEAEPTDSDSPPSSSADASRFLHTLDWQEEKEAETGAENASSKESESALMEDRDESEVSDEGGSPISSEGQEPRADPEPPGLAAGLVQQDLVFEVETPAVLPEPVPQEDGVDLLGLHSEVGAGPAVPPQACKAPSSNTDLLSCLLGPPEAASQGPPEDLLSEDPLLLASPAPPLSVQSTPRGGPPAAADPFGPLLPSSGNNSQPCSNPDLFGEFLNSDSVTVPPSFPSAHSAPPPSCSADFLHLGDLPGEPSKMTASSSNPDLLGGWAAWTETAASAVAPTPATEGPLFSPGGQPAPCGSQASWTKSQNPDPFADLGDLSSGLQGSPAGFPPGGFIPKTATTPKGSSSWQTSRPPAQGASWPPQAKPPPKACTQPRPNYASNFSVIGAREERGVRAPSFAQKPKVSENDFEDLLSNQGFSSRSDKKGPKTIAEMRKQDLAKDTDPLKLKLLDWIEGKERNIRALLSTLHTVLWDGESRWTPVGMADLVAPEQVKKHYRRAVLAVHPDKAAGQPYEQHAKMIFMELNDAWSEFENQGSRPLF

AAK1 = AAK1 (Homo sapiens, UniProt Q2M2I8); test: NAK family TR-FRET binding displacement assay; settings: NAK family FRET screening
Kinetic Solubility = assay type: physicochemical; settings: pH 7.4, aqueous buffer, kinetic from dmso stock, PBS pH7.4 (100 µM)
STK16 = STK16 (Homo sapiens, UniProt O75716); test: NAK family TR-FRET binding displacement assay; settings: NAK family FRET screening; read-out: Binding displacement assay STK16 Ki
[5] = metabolite identification in mouse liver microsomes
Experimental: After centrifugation, the supernatant was subjected to analysis by LCMS, and structures of metabolites were assigned on the basis of their molecular weight and fragmentation pattern.
Compounds were incubated at a concentration of 10 µM with mouse liver microsomes in the presence of an excess of NADPH.
1.1. General Numbering of Metabolites
The metabolites are numbered according to their retention times in the gradient LC-MS analysis in positive […]
ion mode. […] The M number increases […]
consecutively for metabolites with increasing retention time.
To avoid confusion, labelled retention times of a metabolite peak in different injections are the same, which may lead to mismatch between labelled retention time and actual retention time.
General Strategy for Metabolite Identification
The vehicle control and study samples were injected into LC-MS with gradient elution using a Q1 scan method. Searching for potential metabolites was then performed using LightSight software (Applied Biosystems/MDS Sciex) by comparing a total ion current chromatogram of Q1 scan from a study sample with a chromatogram from the corresponding vehicle control sample. The study sample was then injected again to obtain the product ion spectra of potential metabolites using product ion scan methods. The fragmentation patterns of the potential metabolites were then compared to the fragmentation of the parent compound to elucidate the structures of the metabolites.
The assignment of fragments is shown
2.2. Identification of Metabolites in Mouse Liver Microsomal Incubation

BMP2K = BMP2K (Homo sapiens, UniProt Q9NSY1); test: NAK family TR-FRET binding displacement assay
GAK [6] = biological target: T1, GAK; test: TR-FRET ligand-binding displacement assay; settings: TR-FRET assay; read-out: Biochemical GAK Ki
GAK [7] = biological target: T1, GAK; test: live cell NanoBRET target engagement assay; assay type: cell-based; settings: nanoBRET; mean average, n = 2
EGFR = settings: read-out: EGFR KD; cited from earlier work
[8] = mouse liver microsomes, T1/2 (min), mouse liver microsomes with NADPH
[9] = male, C57BL/6, mouse, plasma, po, 2 h pretreat 50 mpk ABT
[10] = male, C57BL/6, mouse, plasma, po, without ABT
[11] = read-out: Kinetic Solubility µM
[12] = read-out: Kinetic Solubility µg/mL

Sequence of AAK1 (Q2M2I8 whole entry): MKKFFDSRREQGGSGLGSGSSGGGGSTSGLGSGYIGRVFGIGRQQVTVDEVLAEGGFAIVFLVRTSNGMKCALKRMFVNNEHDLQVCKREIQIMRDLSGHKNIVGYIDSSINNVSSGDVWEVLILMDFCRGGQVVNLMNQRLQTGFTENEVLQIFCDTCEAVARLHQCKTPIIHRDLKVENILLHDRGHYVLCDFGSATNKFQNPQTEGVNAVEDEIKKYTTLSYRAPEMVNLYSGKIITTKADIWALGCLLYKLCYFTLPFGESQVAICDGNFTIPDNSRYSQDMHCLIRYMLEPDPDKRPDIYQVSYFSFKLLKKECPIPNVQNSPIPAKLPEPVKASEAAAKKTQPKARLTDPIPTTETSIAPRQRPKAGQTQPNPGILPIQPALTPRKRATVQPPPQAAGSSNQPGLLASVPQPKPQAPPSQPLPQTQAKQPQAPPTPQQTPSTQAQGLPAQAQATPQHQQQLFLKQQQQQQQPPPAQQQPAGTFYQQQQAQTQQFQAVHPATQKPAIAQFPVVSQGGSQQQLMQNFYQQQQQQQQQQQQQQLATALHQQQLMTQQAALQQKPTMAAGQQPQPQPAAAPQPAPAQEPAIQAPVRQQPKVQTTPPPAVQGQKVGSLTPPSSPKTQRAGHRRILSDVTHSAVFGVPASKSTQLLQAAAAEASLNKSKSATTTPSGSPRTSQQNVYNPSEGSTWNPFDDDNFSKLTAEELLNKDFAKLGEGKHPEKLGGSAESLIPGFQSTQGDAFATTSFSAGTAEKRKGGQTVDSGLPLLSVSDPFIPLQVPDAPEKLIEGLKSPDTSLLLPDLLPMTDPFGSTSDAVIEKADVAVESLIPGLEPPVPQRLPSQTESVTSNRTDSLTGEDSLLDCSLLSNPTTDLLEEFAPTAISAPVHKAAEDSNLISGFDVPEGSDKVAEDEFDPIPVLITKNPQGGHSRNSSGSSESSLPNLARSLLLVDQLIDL
Sequence of STK16 (O75716 whole entry): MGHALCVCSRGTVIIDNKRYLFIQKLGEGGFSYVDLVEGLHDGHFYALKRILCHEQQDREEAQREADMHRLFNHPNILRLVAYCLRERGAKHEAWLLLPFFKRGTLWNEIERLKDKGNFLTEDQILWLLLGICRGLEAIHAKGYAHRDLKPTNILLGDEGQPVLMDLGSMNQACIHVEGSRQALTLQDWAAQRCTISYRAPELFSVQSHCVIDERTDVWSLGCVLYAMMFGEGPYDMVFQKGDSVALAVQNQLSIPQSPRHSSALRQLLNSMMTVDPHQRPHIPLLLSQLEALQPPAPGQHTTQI
Sequence of BMP2K (Q9NSY1 whole entry): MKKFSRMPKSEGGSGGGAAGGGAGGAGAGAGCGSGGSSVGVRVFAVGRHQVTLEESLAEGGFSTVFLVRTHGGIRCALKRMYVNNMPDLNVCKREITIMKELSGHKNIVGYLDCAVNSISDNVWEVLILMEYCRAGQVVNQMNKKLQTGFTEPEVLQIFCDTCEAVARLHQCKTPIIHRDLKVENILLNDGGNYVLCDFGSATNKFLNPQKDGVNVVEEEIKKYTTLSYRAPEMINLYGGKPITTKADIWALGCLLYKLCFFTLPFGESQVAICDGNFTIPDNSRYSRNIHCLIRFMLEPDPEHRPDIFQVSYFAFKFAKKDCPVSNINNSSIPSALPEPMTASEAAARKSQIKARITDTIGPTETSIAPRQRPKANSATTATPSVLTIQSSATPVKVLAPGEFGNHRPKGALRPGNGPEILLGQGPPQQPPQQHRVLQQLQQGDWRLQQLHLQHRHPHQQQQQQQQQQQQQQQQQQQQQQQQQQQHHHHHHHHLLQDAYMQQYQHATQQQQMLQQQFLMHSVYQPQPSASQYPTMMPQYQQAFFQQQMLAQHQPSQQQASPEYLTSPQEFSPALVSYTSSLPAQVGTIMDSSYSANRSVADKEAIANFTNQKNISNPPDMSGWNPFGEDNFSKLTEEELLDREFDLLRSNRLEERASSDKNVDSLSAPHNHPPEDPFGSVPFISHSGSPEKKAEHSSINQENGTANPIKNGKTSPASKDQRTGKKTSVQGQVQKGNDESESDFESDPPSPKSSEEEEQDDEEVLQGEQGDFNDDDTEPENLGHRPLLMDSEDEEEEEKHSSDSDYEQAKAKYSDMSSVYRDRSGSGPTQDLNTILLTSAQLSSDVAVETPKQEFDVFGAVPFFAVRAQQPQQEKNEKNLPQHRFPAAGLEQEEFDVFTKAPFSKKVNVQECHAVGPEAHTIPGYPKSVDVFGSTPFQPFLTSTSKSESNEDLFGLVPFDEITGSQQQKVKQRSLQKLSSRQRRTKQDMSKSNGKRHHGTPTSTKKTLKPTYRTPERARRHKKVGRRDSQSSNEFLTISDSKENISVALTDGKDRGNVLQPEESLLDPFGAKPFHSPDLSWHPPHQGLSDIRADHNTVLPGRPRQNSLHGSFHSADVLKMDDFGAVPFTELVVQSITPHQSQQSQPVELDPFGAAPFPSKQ

SMILES: Nn1nnc2ccccc21 [ABT, 1-aminobenzotriazole]
residual activity CYP1A2 (CYP1A2): up to 20% | residual activity CYP2D6 (CYP2D6): up to 20% | CYP2C9 activity remaining (CYP2C9): 60% | inhibition of CYP3A4 activity (CYP3A4): 100% | residual activity CYP2B6 (CYP2B6): up to 20% | residual activity CYP2C19 (CYP2C19): up to 20% | inhibition of CYP2A6 activity (CYP2A6): 100% | residual activity CYP2C8 (CYP2C8): up to 20%

SMILES: COc1cc(Nc2ccnc3ccc(Br)cc23)cc(OC)c1OC [Compound 1]
degradation in MLM ([1]; mouse liver microsomes in the absence of NADPH, over an hour): No degradation | CLint scaled ([1]; mouse liver microsomes, Clint (mL/min/kg) (+) ABT, mouse liver microsomes, (+) ABT): 40 mL/min/kg | CLint scaled ([1]; mouse liver microsomes, Clint (mL/min/kg) (−) ABT, (−) ABT): 990 mL/min/kg | half-life ([1]; mouse liver microsomes, T1/2 (min) (+) ABT, mouse liver microsomes, (+) ABT): 130 min | half-life ([1]; mouse liver microsomes, T1/2 (min) (−) ABT, (−) ABT): 5.7 min | half-life [1, 8]: 5.7 min | Cmax ([2]; without ABT): 97 ng/mL | AUC(0-inf) [2, 9]: 1900 ng·h/mL | Tmax [2, 9]: 30 min | Cmax ([2]; male, C57BL/6, mouse, plasma, po, 2 h pretreat 50 mpk ABT, read-out: Cmax): 650 ng/mL | AUC(0-inf) [2, 10]: 98 ng·h/mL | Tmax [2, 10]: 30 min | Cmax ([2]; male, C57BL/6, mouse, plasma, po, without ABT, read-out: Cmax): < 100 ng/mL | half-life ([2]; male, mouse, plasma, without ABT, read-out: T1/2 in mice): < 60 min | viability of prostate cancer cells [3]: potently inhibits | GAK DSF ΔTm (GAK [4]): 7.7 °C | Ki (AAK1): 53 µM | solubility kinetic (Kinetic Solubility; [11]): 57.8 µM | solubility kinetic (Kinetic Solubility; [12]): 22.5 µg/mL | Ki (STK16): 51 µM

T1/2 Ratio ([1]; mouse liver microsomes, normalization with respect to internal control (propranolol)): 0.47 | half-life [1, 8]: 3.2 min | Primary Metabolism Site [5]: Aniline | Primary Metabolite Mass [5]: Parent − F + OH | Ki (BMP2K): 18 µM | Ki (GAK [6]): 0.035 µM | Ki (AAK1): 5.7 µM | solubility kinetic (Kinetic Solubility; [11]): 39.5 µM | solubility kinetic (Kinetic Solubility; [12]): 13.2 µg/mL | IC50 (GAK [7]): 2.7 µM | Ki (STK16): 11 µM
SMILES: Fc1ccc(Nc2ccnc3ccc(Br)cc23)c(F)c1 [Compound 11, 6-Bromo-N-(2,4-difluorophenyl)quinolin-4-amine]

SMILES: C#Cc1cccc(Nc2ncnc3cc(OCCOC)c(OCCOC)cc23)c1 [Erlotinib, erlotinib]
Kd (EGFR): 0.0007 µM
